US8802597B2, “Herbicidal pyrimidines” (E I du Pont de Nemours and Company, priority 2003, dated 2014)
Where two headings read alike, the source gives them in different places.

Assays:
Format in all cases: in vivo
[1] = test system: Surinam grass (Brachiaria decumbens); assay: Test B pre/postemergence; conditions: Urochloa decumbens; for pest or weed control at 125 g/ha: 125 g ai/ha; for pest or weed control at 500 g/ha: 500 g ai/ha
Procedure, shortened: (§1)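 Scores reflect visual comparison with untreated controls, where 0 means no effect and 100 complete control. Plants stayed 13 to 15 days in the greenhouse after pre- or postemergence treatment with compounds carried in a non-phytotoxic solvent and surfactant.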

[2] = test system: barnyardgrass (Echinochloa crus-galli); assay: Test B pre/postemergence; conditions: Echinochloa crus-galli; for pest or weed control at 125 g/ha: 125 g ai/ha; for pest or weed control at 500 g/ha: 500 g ai/ha
Procedure, shortened: as §1

[3] = test system: cocklebur (Xanthium strumarium); assay: Test B pre/postemergence; conditions: Xanthium strumarium; for pest or weed control at 125 g/ha: 125 g ai/ha; for pest or weed control at 500 g/ha: 500 g ai/ha
Procedure, shortened: as §1

corn (Zea mays) = assay: Test B pre/postemergence; conditions: Zea mays
Procedure, shortened: as §1

[4] = test system: crabgrass (Digitaria sanguinalis); assay: Test B pre/postemergence; conditions: Digitaria sanguinalis; for pest or weed control at 125 g/ha: 125 g ai/ha; for pest or weed control at 500 g/ha: 500 g ai/ha
Procedure, shortened: as §1

[5] = test system: giant foxtail (Setaria faberii); assay: Test B pre/postemergence; conditions: Setaria faberi; for pest or weed control at 125 g/ha: 125 g ai/ha; for pest or weed control at 500 g/ha: 500 g ai/ha
Procedure, shortened: as §1

[6] = test system: lambsquarters (Chenopodium album); assay: Test B pre/postemergence; conditions: Chenopodium album; for pest or weed control at 125 g/ha: 125 g ai/ha; for pest or weed control at 500 g/ha: 500 g ai/ha
Procedure, shortened: as §1

[7] = test system: morningglory (Ipomoea coccinea); assay: Test B pre/postemergence; conditions: Ipomoea; for pest or weed control at 125 g/ha: 125 g ai/ha; for pest or weed control at 500 g/ha: 500 g ai/ha
Procedure, shortened: as §1

[8] = test system: pigweed (Amaranthus retroflexus); assay: Test B pre/postemergence; conditions: Amaranthus retroflexus; for pest or weed control at 125 g/ha: 125 g ai/ha; for pest or weed control at 500 g/ha: 500 g ai/ha
Procedure, shortened: as §1

[9] = test system: velvetleaf (Abutilon theophrasti); assay: Test B pre/postemergence; conditions: Abutilon theophrasti; for pest or weed control at 125 g/ha: 125 g ai/ha; for pest or weed control at 500 g/ha: 500 g ai/ha
Procedure, shortened: as §1

[10] = test system: wheat (Triticum aestivum); assay: Test B pre/postemergence; conditions: Triticum aestivum; for plant injury at 125 g/ha: 125 g ai/ha; for plant injury at 500 g/ha: 500 g ai/ha
Procedure, shortened: as §1

[11] = test system: blackgrass (Alopecurus myosuroides); assay: Test B postemergence; conditions: Alopecurus myosuroides, post-emergence
Procedure, shortened: as §1

wild oat (Avena fatua) = assay: Test B postemergence; conditions: Avena fatua, post-emergence
Procedure, shortened: as §1

[12] = test system: barnyardgrass (Echinochloa crus-galli); assay: Test B flooded paddy test; conditions: Echinochloa crus-galli, Flood, 1000 g ai/ha; scale 0 (no effect) to 100 (complete control); read-out: Plant response rating, Barnyardgrass
Procedure, shortened: (§2)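 Visual injury scoring (0 = no effect, 100 = complete control) versus controls made 13 to 15 days after treatment in the greenhouse. Test species were grown in flooded paddy to the 2-leaf stage: rice, barnyardgrass, umbrella sedge, duck salad.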

[13] = test system: duck salad (Heteranthera limosa); assay: Test B flooded paddy test; conditions: Heteranthera limosa, Flood, 1000 g ai/ha; scale 0 to 100; read-out: Plant response rating, Ducksalad
Procedure, shortened: as §2

rice (Oryza sativa) = assay: Test B flooded paddy test; conditions: Oryza sativa, Flood, 1000 g ai/ha; scale 0 to 100; read-out: Plant response rating, Rice
Procedure, shortened: as §2

[14] = test system: umbrella sedge (Cyperus difformis); assay: Test B flooded paddy test; conditions: Cyperus difformis, Flood, 1000 g ai/ha; scale 0 to 100; read-out: Plant response rating, Sedge, Umbrella
Procedure, shortened: as §2

In the case of `CCOC(=O)c1nc(C2CC2)nc(N)c1F` [Compound 30], the pest or weed control at 125 g/ha ([1]; post-emergence, Postemergence, scale 0 to 100 (0 no effect, 100 complete control), read-out: Surinam Grass plant response rating) is reported as 10%, the pest or weed control at 500 g/ha ([1]; post-emergence, Postemergence, scale 0 to 100, read-out: Plant response rating, Surinam Grass) is reported as 80% and the pest or weed control at 125 g/ha ([1]; pre-emergence, Preemergence, scale 0 to 100 (0 no effect, 100 complete control), read-out: Plant response rating, Surinam Grass) is reported as 0%. It also gave a pest or weed control at 500 g/ha ([1]; pre-emergence, Preemergence, scale 0 to 100 (0 no effect, 100 complete control), read-out: Surinam Grass plant response rating) of 80%, a pest or weed control at 125 g/ha ([2]; post-emergence, Postemergence, scale 0 to 100 (0 no effect, 100 complete control), read-out: Barnyardgrass plant response rating) of 0% and a pest or weed control at 500 g/ha ([2]; post-emergence, Postemergence, scale 0 to 100, read-out: Plant response rating, Barnyardgrass) of 80%. For the same molecule, the pest or weed control at 125 g/ha ([2]; pre-emergence, Preemergence, scale 0 to 100 (0 no effect, 100 complete control), read-out: Plant response rating, Barnyardgrass) was 10%, the pest or weed control at 500 g/ha ([2]; pre-emergence, Preemergence, scale 0 to 100 (0 no effect, 100 complete control), read-out: Barnyardgrass plant response rating) was 40% and the pest or weed control at 125 g/ha ([3]; post-emergence, Postemergence, scale 0 to 100 (0 no effect, 100 complete control), read-out: Cocklebur plant response rating) was 100%. The pest or weed control at 500 g/ha ([3]; post-emergence, Postemergence, scale 0 to 100, read-out: Plant response rating, Cocklebur) was 100%, the pest or weed control at 125 g/ha ([3]; pre-emergence, Preemergence, scale 0 to 100 (0 no effect, 100 complete control), read-out: Plant response rating, Cocklebur) was 60% and the pest or weed control at 500 g/ha ([3]; pre-emergence, Preemergence, scale 0 to 100 (0 no effect, 100 complete control), read-out: Cocklebur plant response rating) was 100%. It also gave a plant injury at 125 g/ha (corn (Zea mays); post-emergence, Postemergence, 125 g ai/ha, scale 0 to 100 (0 no effect, 100 complete control), read-out: Corn plant response rating) of 0%, a Corn plant response rating (crop injury, 0 = no effect, 100 = complete kill) at 500 g/ha (corn (Zea mays); post-emergence, Postemergence, 500 g ai/ha, scale 0 to 100) of 30% and a Corn plant response rating (crop injury, 0 = no effect, 100 = complete kill) at 125 g/ha (corn (Zea mays); pre-emergence, Preemergence, 125 g ai/ha, scale 0 to 100 (0 no effect, 100 complete control)) of 10%. It also gave a plant injury at 500 g/ha (corn (Zea mays); pre-emergence, Preemergence, 500 g ai/ha, scale 0 to 100 (0 no effect, 100 complete control), read-out: Corn plant response rating) of 80%, a pest or weed control at 125 g/ha ([4]; post-emergence, Postemergence, scale 0 to 100 (0 no effect, 100 complete control), read-out: Crabgrass plant response rating) of 30% and a pest or weed control at 500 g/ha ([4]; post-emergence, Postemergence, scale 0 to 100, read-out: Plant response rating, Crabgrass) of 90%. For the same molecule, the pest or weed control at 125 g/ha ([4]; pre-emergence, Preemergence, scale 0 to 100 (0 no effect, 100 complete control), read-out: Plant response rating, Crabgrass) was 50%, the pest or weed control at 500 g/ha ([4]; pre-emergence, Preemergence, scale 0 to 100 (0 no effect, 100 complete control), read-out: Crabgrass plant response rating) was 90% and the pest or weed control at 125 g/ha ([5]; post-emergence, Postemergence, scale 0 to 100 (0 no effect, 100 complete control), read-out: Foxtail, Giant plant response rating) was 0%. The pest or weed control at 500 g/ha ([5]; post-emergence, Postemergence, scale 0 to 100, read-out: Plant response rating, Foxtail, Giant) was 90%, the pest or weed control at 125 g/ha ([5]; pre-emergence, Preemergence, scale 0 to 100 (0 no effect, 100 complete control), read-out: Plant response rating, Foxtail, Giant) was 10% and the pest or weed control at 500 g/ha ([5]; pre-emergence, Preemergence, scale 0 to 100 (0 no effect, 100 complete control), read-out: Foxtail, Giant plant response rating) was 80%. It also gave a pest or weed control at 125 g/ha ([6]; post-emergence, Postemergence, scale 0 to 100 (0 no effect, 100 complete control), read-out: Lambsquarters plant response rating) of 90%, a pest or weed control at 500 g/ha ([6]; post-emergence, Postemergence, scale 0 to 100, read-out: Plant response rating, Lambsquarters) of 100% and a pest or weed control at 125 g/ha ([6]; pre-emergence, Preemergence, scale 0 to 100 (0 no effect, 100 complete control), read-out: Plant response rating, Lambsquarters) of 80%. The pest or weed control at 500 g/ha ([6]; pre-emergence, Preemergence, scale 0 to 100 (0 no effect, 100 complete control), read-out: Lambsquarters plant response rating) was 90%, the pest or weed control at 125 g/ha ([7]; post-emergence, Postemergence, scale 0 to 100 (0 no effect, 100 complete control), read-out: Morningglory plant response rating) was 90% and the pest or weed control at 500 g/ha ([7]; post-emergence, Postemergence, scale 0 to 100, read-out: Plant response rating, Morningglory) was 100%. It also gave a pest or weed control at 125 g/ha ([7]; pre-emergence, Preemergence, scale 0 to 100 (0 no effect, 100 complete control), read-out: Plant response rating, Morningglory) of 90%, a pest or weed control at 500 g/ha ([7]; pre-emergence, Preemergence, scale 0 to 100 (0 no effect, 100 complete control), read-out: Morningglory plant response rating) of 100% and a pest or weed control at 125 g/ha ([8]; post-emergence, Postemergence, scale 0 to 100 (0 no effect, 100 complete control), read-out: Pigweed plant response rating) of 90%. The pest or weed control at 500 g/ha ([8]; post-emergence, Postemergence, scale 0 to 100, read-out: Plant response rating, Pigweed) was 100%, the pest or weed control at 125 g/ha ([8]; pre-emergence, Preemergence, scale 0 to 100 (0 no effect, 100 complete control), read-out: Plant response rating, Pigweed) was 50% and the pest or weed control at 500 g/ha ([8]; pre-emergence, Preemergence, scale 0 to 100 (0 no effect, 100 complete control), read-out: Pigweed plant response rating) was 90%. For the same molecule, the pest or weed control at 125 g/ha ([9]; post-emergence, Postemergence, scale 0 to 100 (0 no effect, 100 complete control), read-out: Velvetleaf plant response rating) was 50%, the pest or weed control at 500 g/ha ([9]; post-emergence, Postemergence, scale 0 to 100, read-out: Plant response rating, Velvetleaf) was 90% and the pest or weed control at 125 g/ha ([9]; pre-emergence, Preemergence, scale 0 to 100 (0 no effect, 100 complete control), read-out: Plant response rating, Velvetleaf) was 10%. It also gave a pest or weed control at 500 g/ha ([9]; pre-emergence, Preemergence, scale 0 to 100 (0 no effect, 100 complete control), read-out: Velvetleaf plant response rating) of 80%, a plant injury at 125 g/ha ([10]; post-emergence, Postemergence, scale 0 to 100 (0 no effect, 100 complete control), read-out: Wheat plant response rating) of 50% and a plant injury at 500 g/ha ([10]; post-emergence, Postemergence, scale 0 to 100, read-out: Plant response rating, Wheat) of 60%. The plant injury at 125 g/ha ([10]; pre-emergence, Preemergence, scale 0 to 100 (0 no effect, 100 complete control), read-out: Plant response rating, Wheat) was 30%, the plant injury at 500 g/ha ([10]; pre-emergence, Preemergence, scale 0 to 100 (0 no effect, 100 complete control), read-out: Wheat plant response rating) was 60% and the pest or weed control at 125 g/ha ([11]; 125 g ai/ha, scale 0 to 100 (0 no effect, 100 complete control), read-out: Blackgrass plant response rating) was 60%. The pest or weed control at 500 g/ha ([11]; 500 g ai/ha, scale 0 to 100, read-out: Plant response rating, Blackgrass) was 70%, the pest or weed control at 125 g/ha (wild oat (Avena fatua); 125 g ai/ha, scale 0 to 100 (0 no effect, 100 complete control), read-out: Oat, Wild plant response rating) was 60% and the pest or weed control at 500 g/ha (wild oat (Avena fatua); 500 g ai/ha, scale 0 to 100, read-out: Plant response rating, Oat, Wild) was 70%. It also gave a pest or weed control at 1000 g/ha [12] of 0%, a pest or weed control at 1000 g/ha [13] of 0% and a plant injury at 1000 g/ha (rice (Oryza sativa)) of 0%. The pest or weed control at 1000 g/ha [14] was 0%.
